Structures are written as SMILES. “Also recorded” adds a separate entry of the source.

The target in assay [1] is T1, OR-S6 coexpressed with M3 (Mus musculus, UniProt Q9ERZ3).
T1 construct: The open reading frames were amplified using Phusion polymerase; expressed in transfected cells; host or cells: HEK293T
Description: CRE-luciferase reporter assay of OR activation in HEK293T cells. In kind it is cell-based. The method, then: (§1) Given that GPCRs that form heteromeric interactions often show functional co-modulation, experiments were conducted to determine if altering M3 activity directly affects the odor-mediated activation of ORs. […] HEK293T cells Hana3A cells were maintained in minimal essential medium (MEM) containing 10% fetal bovine serum (M10) and penicillin-streptomycin and amphotericin solution. Lipofectamine 2000 (Invitrogen) was used for transfection following manufacturer's protocols. […] Briefly, cAMP response element (CRE)-luciferase (Stratagene) was used to measure OR activation. […] Cells were plated on poly-D-lysine-coated 96-well plates (NUNC) 2 days prior to assay. Cells were transfected with ORs in either Hana3A or HEK293T cell lines along with various combinations of RTP1S, Ric-8b, M3, CRE-luciferase, and pRL-SV40. 18-24 hours after transfection, cells were rinsed with 50 μl of CD293 (Invitrogen) and stimulated with 25 μl of odorant solution dissolved in CD293. Cells were incubated for 4 hours at 37° C. and 5% CO2 before luciferase assays. Protocols for measuring luciferase and Renilla luciferase activities were as described by the manufacturer (Promega). Normalized luciferase activity was calculated with the formula (LN−Lmin)/(Lmax−Lmin), where LN is the luminescence of firefly luciferase in response to the odorant, Lmin is the minimum luciferase value on a plate or set of plates, and Lmax is the maximum luciferase value on a plate or set of plates. The data was analyzed with Microsoft Excel and GraphPad Prism 5. Odorants and muscarinic agonists and antagonists were from Sigma except for darifenacin, which was purchased from Santa Cruz.

The subject of assay [2] is OR-S6, RTP1S and M3 coexpressed. As to the kind of experiment: Alphascreen cAMP assay in HEK293T cells. In kind it is cell-based, mouse. The method, then:
When OR, RTP1S, and M3 were coexpressed, the background level was slightly higher than other conditions.
Alphascreen cAMP assay (Perkin Elmer) was used to measure changes of cAMP. Cells were plated on 96-cell plate (poly D lysine coated, NUNC). 24 hours after transfection, cells were washed in Hanks containing 5 mM HEPES, 0.1% BSA and 500 uM IBMX for 30 minutes. The cells were then stimulated with Hanks containing 5 mM HEPES, 0.1% BSA and 500 uM IBMX and corresponding chemicals. The stimulated cells were incubated for 10 min at room temperature before lysis. The manufacture's protocol was used to measure cAMP.
On the technique in general: Bead proximity is the source of the signal in Alpha formats.

In assay [3] the test system is olfactory sensory neurons (OSNs). As to the kind of experiment: Calcium imaging of acutely dissociated OSNs stimulated with a mix of 10 odorants. The following applies: paired T-test. In kind it is cell-based, mouse.
In assay [4] the test system is OR-S6 coexpressed with M3. Description: CRE-luciferase reporter assay of OR activation in HEK293T cells. In kind it is cell-based, mouse. As to conditions: HEK293T coexpressing OR-S6, RTP1S and M3 vs. without M3. The method, then:
as §1
For orientation: In a reporter assay the amount or activity of a reporter protein is the signal.

The next assay has as its target T2, M3 (Mus musculus, UniProt Q9ERZ3).
T2 construct: The open reading frames were amplified using Phusion polymerase; expressed in transfected cells; host or cells: HEK293T
Description: Calcium imaging with HEK293T cells expressing M3. In kind it is cell-based. The following applies: carbachol 10^−7M. From the text:
(§2) Since M3 potentiates OR signaling, the possibility that OR activation may also enhance M3 signaling was considered.

Assay [5] relates to OR-S6 coexpressed with M3. Description: Calcium imaging with HEK293T cells coexpressing OR-S6 and M3. As to conditions: for calcium response to odor alone: OR-S6 and its cofactors (mRTP) coexpressed with M3, 10^−4M nonanedioic acid. In kind it is cell-based, mouse.
Description: as §2

The test system of the next assay is OR-S6. Description: Calcium imaging with HEK293T cells expressing OR-S6 without M3. The format is cell-based, mouse. The method, then:
as §2
Calcium imaging with HEK293T cells was performed as described (see, e.g., Y. Ishimaru et al., Proc Natl Acad Sci USA 103, 12569 (Aug. 15, 2006); herein incorporated by reference in its entirety).

T2 sequence (Q9ERZ3 whole entry): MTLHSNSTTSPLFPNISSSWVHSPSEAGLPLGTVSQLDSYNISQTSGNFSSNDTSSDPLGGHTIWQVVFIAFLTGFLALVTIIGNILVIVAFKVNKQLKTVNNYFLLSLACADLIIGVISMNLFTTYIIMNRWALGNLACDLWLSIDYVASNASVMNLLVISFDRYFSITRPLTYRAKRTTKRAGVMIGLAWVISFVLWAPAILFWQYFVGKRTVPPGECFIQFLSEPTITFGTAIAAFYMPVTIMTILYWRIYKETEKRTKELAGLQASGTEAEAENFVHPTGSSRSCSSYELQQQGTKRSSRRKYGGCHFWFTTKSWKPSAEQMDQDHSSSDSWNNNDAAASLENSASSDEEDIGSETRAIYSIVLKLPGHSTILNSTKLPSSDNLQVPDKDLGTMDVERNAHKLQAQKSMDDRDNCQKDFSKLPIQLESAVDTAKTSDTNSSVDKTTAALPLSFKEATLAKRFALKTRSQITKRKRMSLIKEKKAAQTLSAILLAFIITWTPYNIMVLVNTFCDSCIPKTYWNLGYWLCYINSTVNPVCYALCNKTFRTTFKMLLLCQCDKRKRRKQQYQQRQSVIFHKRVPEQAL
T1 sequence (Q9ERZ3 whole entry): as above

On to `CN1[C@@H]2CC[C@H]1C[C@@H](OC(=O)C(CO)c1ccccc1)C2` (stereo partly drawn) [atropine], for which, in assay [1], the “OR-S6 activation by nonanedioic acid on co-stimulation with muscarinic ligand” value was “hindered the potentiation effect of M3”.
With `C[N+](C)(C)CCOC(N)=O` [carbachol], the “rise in cAMP following OR stimulation, costimulation with carbachol” value in assay [2] (carbachol 10^−7M, HEK293T transfected with OR-S6, RTP1S and M3) is “even more dramatic; also recorded: further stimulates production of cAMP”.
Regarding `NC(=O)C(c1ccccc1)(c1ccccc1)[C@@H]1CCN(CCc2ccc3c(c2)CCO3)C1` [darifenacin], the “odor-mediated calcium responses of OSNs (Fluo-4/Fura-red ratio, Anet)” value in assay [3] (10^−7M antagonist with mix of 10 odorants each at 10^−5M) is on record as “significantly attenuated”; in assay [3] (10^−7M antagonist with mix of 10 odorants each at 10^−5M, listed as darifenecin) it was “attenuated odor-mediated responses of OSNs”.
Consider `C[C@H](CCC(=O)O)C[C@H](C)C[C@H](C)C(=O)/C=C(\O)[C@H](C)C[C@H](C)C/C=C/[C@@H](C)[C@@H](O)[C@@H](C)[C@@H](O)C[C@@H]1CC[C@@](C)([C@H]2CC[C@@](C)([C@@H](C)O)O2)O1` [ionomycin], for which the “CRE-luciferase reporter response without OR ligands” value is given as “reporter gene responses were not seen” in assay [4] and “had no effect on OR activation” in assay [4] (listed as Ionomycin).
In the case of `O=C(O)CCCCCCCC(=O)O` [nonanedioic acid], the “cellular cAMP levels following stimulation with OR-S6 ligand” value in assay [2] (cells coexpressing OR-S6, RTP1S and M3 vs. without M3) is reported as “dramatic increase in cellular cAMP levels”. For the same compound, the calcium response entry at M3 is listed as “No response was observed”; in assay [5] (cells expressing both S6 and M3 in the absence of RTP) it was “does not elicit a calcium response”; in the assay with OR-S6 (HEK293T cells expressing OR-S6 alone), “No calcium response was observed”; in the assay with OR-S6 (cells coexpressing OR and Gα15olf (positive control)) it was “generate a calcium response”; in the assay on OR-S6 (cells coexpressing OR and Gα15olf (positive control), listed as nonandioic acid) it was “increase cellular calcium”. The “calcium response to odor alone” value in assay [5] is recorded as “strong calcium response”; in assay [5] (listed as nonandioic acid), “calcium level increases”.
As for `O[Si](CCCN1CCCCC1)(c1ccc(F)cc1)C1CCCCC1` (stereo not drawn) [pfHHSiD], the “odor-mediated calcium responses of OSNs (Fluo-4/Fura-red ratio, Anet)” value in assay [3] (10^−6M antagonist with mix of 10 odorants each at 10^−5M) is “Equivalent results; also recorded: attenuated odor-mediated responses of OSNs”.

Source of the values: patent US10883143B2, “Compositions and methods for enhancing odorant receptor activity” (DUKE UNIVERSITY, priority 2009, dated 2021).
